Measured values: article PMC4096627 (Bioorganic & medicinal chemistry, 2014)
Counter-ions that a name gives are not always drawn.

Legend:
[1] = biological target: T1, Dopamine Receptor D4 (Homo sapiens, UniProt P21917); test: NIMH-PDSP binding affinity at dopamine receptor subtype D4; details: for D2/D4: ratio of Ki D2 to Ki D4
T1 sequence (P21917 1-419): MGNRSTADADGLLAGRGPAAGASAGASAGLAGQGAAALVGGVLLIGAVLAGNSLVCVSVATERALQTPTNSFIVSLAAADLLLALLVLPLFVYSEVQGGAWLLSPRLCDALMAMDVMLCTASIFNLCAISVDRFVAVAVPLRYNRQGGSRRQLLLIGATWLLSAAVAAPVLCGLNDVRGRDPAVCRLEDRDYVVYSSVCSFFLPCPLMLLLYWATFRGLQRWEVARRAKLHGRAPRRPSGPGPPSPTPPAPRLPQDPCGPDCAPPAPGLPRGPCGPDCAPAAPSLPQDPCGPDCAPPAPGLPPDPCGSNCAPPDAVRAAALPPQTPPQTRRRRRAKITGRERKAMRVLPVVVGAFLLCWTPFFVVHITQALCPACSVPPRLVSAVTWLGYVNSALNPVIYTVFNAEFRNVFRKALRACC

[2] = biological target: Dopamine Receptor D5 (Homo sapiens, UniProt P21918); test: NIMH-PDSP binding affinity at dopamine receptor subtype D5; details: for primary assay inhibition at D5: primary assay threshold
[3] = biological target: T1, Dopamine Receptor D4; details: compounds 1-7, D2-like data; ref Previous publications from our lab; cited from earlier work
[4] = biological target: Dopamine Receptor D1 (Homo sapiens, UniProt P21728); test: NIMH-PDSP binding affinity at dopamine receptor subtype D1; details: for primary assay inhibition at D1: primary assay threshold
[5] = biological target: Dopamine Receptor D3 (Homo sapiens, UniProt P35462); test: NIMH-PDSP binding affinity at dopamine receptor subtype D3
[6] = biological target: Dopamine Receptor D2 (Homo sapiens, UniProt P14416); test: NIMH-PDSP binding affinity at dopamine receptor subtype D2; details: for primary assay inhibition at D2: primary assay threshold
Chain of Dopamine Receptor D2 (P14416 whole entry): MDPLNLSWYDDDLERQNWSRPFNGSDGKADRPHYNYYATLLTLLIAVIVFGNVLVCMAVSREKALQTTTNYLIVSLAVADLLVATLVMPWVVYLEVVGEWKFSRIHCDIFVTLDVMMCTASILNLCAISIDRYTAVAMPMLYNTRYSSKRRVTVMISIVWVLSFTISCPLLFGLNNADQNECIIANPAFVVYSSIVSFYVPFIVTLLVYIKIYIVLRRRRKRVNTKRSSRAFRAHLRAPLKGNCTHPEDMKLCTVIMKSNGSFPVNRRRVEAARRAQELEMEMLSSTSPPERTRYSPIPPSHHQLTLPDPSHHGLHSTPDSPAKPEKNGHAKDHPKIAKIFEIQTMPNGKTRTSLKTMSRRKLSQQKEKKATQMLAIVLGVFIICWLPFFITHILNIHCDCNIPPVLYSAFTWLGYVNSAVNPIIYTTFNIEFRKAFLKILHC

Chain of Dopamine Receptor D1 (P21728 whole entry): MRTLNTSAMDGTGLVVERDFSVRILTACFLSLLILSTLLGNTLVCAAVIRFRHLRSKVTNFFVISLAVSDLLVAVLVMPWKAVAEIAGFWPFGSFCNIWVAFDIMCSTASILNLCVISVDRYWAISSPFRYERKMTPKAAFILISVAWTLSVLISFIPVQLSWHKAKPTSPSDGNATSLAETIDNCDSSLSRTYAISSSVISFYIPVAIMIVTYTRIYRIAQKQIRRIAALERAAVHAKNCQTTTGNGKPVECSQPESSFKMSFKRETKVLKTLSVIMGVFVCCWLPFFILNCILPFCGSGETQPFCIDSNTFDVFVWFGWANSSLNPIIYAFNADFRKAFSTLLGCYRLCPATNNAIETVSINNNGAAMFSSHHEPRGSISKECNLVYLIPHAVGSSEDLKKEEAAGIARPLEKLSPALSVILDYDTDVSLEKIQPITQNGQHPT
Chain of Dopamine Receptor D5 (P21918 whole entry): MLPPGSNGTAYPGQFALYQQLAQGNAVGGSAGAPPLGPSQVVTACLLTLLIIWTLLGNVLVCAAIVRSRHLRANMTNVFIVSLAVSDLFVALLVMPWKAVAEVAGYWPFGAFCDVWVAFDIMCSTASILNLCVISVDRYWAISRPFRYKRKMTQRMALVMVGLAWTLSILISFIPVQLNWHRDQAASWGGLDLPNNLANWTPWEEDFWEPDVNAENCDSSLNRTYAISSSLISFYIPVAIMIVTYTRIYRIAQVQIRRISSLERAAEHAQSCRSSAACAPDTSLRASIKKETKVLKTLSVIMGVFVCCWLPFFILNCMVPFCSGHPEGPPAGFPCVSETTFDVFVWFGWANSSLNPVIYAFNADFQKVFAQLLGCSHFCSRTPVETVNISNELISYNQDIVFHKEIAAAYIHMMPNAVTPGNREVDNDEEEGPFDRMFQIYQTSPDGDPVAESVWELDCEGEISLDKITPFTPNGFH
Chain of Dopamine Receptor D3 (P35462 whole entry): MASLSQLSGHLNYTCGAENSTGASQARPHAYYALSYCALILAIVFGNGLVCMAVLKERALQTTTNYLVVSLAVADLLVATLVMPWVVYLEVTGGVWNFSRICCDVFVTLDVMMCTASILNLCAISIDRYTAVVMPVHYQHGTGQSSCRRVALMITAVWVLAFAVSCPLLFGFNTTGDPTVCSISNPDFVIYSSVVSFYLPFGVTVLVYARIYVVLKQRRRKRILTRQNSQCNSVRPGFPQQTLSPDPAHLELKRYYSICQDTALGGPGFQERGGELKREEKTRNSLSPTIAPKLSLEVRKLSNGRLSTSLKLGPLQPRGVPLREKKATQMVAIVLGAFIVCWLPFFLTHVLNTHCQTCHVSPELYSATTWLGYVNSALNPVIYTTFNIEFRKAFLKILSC

Compound	D2/D4 [1]	primary assay inhibition at D5 [2]	primary assay inhibition at D1 [4]	further results
O=C(CCCN1CCN(c2ccc(Cl)cc2)CC1)c1ccc(F)cc1 [Compound 1]	14.5	–	–	D3/D4 ([1]; ratio of Ki D3 to Ki D4): 23.1
[O-][S+](CCCN1CCN(c2ccc(Cl)cc2)CC1)c1ccc(F)cc1 (centres unmarked) [Compound 2]	–	MT (Missed primary assay threshold of 50% inhibition)	MT (Missed primary assay threshold of 50% inhibition)	pKi ±SEM at the Dopamine Receptor Subtype D4 [3]: 7.89±0.05
Clc1ccc(N2CCN(CCCOc3ccccc3)CC2)cc1 [Compound 6]	–	–	–	pKi ±SEM at the Dopamine Receptor Subtype D4 [3]: 8.26±0.03
O=C1c2ccc(F)cc2CC1CCN1CCN(c2ccc(Cl)cc2)CC1 (centres unmarked) [Compound 8, 2-(2-(4-(4-Chlorophenyl)piperazin-1-yl)ethyl)-5-fluoro-indan-1-one hydrochloride]	–	MT (Missed primary assay threshold of 50% inhibition)	–	–
O=C1c2ccccc2CC1CCN1CCN(c2ccc(Cl)cc2)CC1 (centres unmarked) [Compound 9, 2-{2-[4-(4-Chloro-phenyl)-piperazin-1-yl]-ethyl}-indan-1-one tosylate]	>277	MT (Missed primary assay threshold of 50% inhibition)	–	–
Fc1ccc2c(c1)CC(CCN1CCN(c3ccc(Cl)cc3)CC1)C2 (centres unmarked) [Compound 10, 1-(4-Chlorophenyl)-4-(2-(5-fluoro-2,3-dihydro-1H-inden-2-yl)ethyl)piperazine dihydrochloride]	–	MT (Missed primary assay threshold of 50% inhibition)	–	–
Cc1ccc(N2CCN(CCCOc3ccc(F)cc3)CC2)nc1 [Compound 15a, 1-(3-(4-Fluorophenoxy)propyl)-4-(5-methylpyridin-2-yl)piperazine]	–	–	–	Ki ([1]; pKi ±SEM at the Dopamine Receptor Subtype D4): 1.1 nM
Cc1ccc(N2CCN(CCCSc3ccc(F)cc3)CC2)nc1 [Compound 15b, 1-(3-((4-Fluorophenyl)thio)propyl)-4-(5-methylpyridin-2-yl)piperazine]	–	–	–	pKi ±SEM at the Dopamine Receptor Subtype D5 [2]: 5.7±0.1; pKi ±SEM at the Dopamine Receptor Subtype D3 [5]: 6.8±0.1; pKi ±SEM at the Dopamine Receptor Subtype D2 [6]: 6±0.1
Fc1ccc(OCCCN2CCN(c3ncccn3)CC2)cc1 [Compound 16a]	–	MT (Missed primary assay threshold of 50% inhibition)	–	–
Clc1ccc(N2CCN(CCCCc3nc4ccccc4o3)CC2)cc1 [Compound 20, 2-(4-(4-(4-Chlorophenyl)piperazin-1-yl)butyl)benzo[d]oxazole]	>327	MT (Missed primary assay threshold of 50% inhibition)	MT (Missed primary assay threshold of 50% inhibition)	primary assay inhibition at D2 [6]: MT (Missed primary assay threshold of 50% inhibition)
Clc1ccc(N2CCN(CCc3nc4ccccc4o3)CC2)cc1 [Compound 22, 2-(2-(4-(4-Chlorophenyl)piperazin-1-yl)ethyl)benzo[d]oxazole]	>7.1	MT (Missed primary assay threshold of 50% inhibition)	MT (Missed primary assay threshold of 50% inhibition)	primary assay inhibition at D2 [6]: MT (Missed primary assay threshold of 50% inhibition)
Clc1ccc(N2CCN(CCc3cc4ccccc4o3)CC2)cc1 [Compound 23, 1-(2-(Benzofuran-2-yl)ethyl)-4-(4-chlorophenyl)piperazine]	–	MT (Missed primary assay threshold of 50% inhibition)	MT (Missed primary assay threshold of 50% inhibition)	primary assay inhibition at D3 ([5]; primary assay threshold): MT (Missed primary assay threshold of 50% inhibition); primary assay inhibition at D2 [6]: MT (Missed primary assay threshold of 50% inhibition)
Clc1ccc(N2CCN(CCCc3cc4ccccc4o3)CC2)cc1 [Compound 24, 1-(3-(Benzofuran-2-yl)propyl)-4-(4-chlorophenyl)piperazine]	–	MT (Missed primary assay threshold of 50% inhibition)	–	–
Clc1ccc(N2CC3CC2CN3CCCc2cc3ccccc3o2)cc1 (centres unmarked) [Compound 25, 2-(3-(Benzofuran-2-yl)propyl)-5-(4-chlorophenyl)-2,5-diazabicyclo[2.2.1]heptane]	>4.2-	MT (Missed primary assay threshold of 50% inhibition)	MT (Missed primary assay threshold of 50% inhibition)	primary assay inhibition at D2 [6]: MT (Missed primary assay threshold of 50% inhibition)
c1cnc(N2CCN(CCCCc3nc4ccccc4s3)CC2)nc1 [Compound 27]	–	MT (Missed primary assay threshold of 50% inhibition)	MT (Missed primary assay threshold of 50% inhibition)	–
c1cnc(N2CCN(CCCc3nc4ccccc4s3)CC2)nc1 [Compound 28, 2-(3-(4-(Pyrimidin-2-yl)piperazin-1-yl)propyl)benzo[d]thiazole trihydrobromide]	–	MT (Missed primary assay threshold of 50% inhibition)	MT (Missed primary assay threshold of 50% inhibition)	inhibition of the appropriate radioligand at D5 ([2]; other DA subtypes): less than 50%; inhibition of the appropriate radioligand at D1 ([4]; other DA subtypes): less than 50%
